According to PMC6807911, “A structure-based approach towards the identification of novel antichagasic compounds: Trypanosoma cruzi carbonic anhydrase inhibitors” (Journal of Enzyme Inhibition and Medicinal Chemistry, 2019):
pKi: −log10 of the molar value.

Biological target: T1, TcCA (Trypanosoma cruzi carbonic anhydrase) (Trypanosoma cruzi, UniProt Q4CVY4)
T1 construct: gene Tc00.1047053509597.20
T1 sequence (Q4CVY4 39-638): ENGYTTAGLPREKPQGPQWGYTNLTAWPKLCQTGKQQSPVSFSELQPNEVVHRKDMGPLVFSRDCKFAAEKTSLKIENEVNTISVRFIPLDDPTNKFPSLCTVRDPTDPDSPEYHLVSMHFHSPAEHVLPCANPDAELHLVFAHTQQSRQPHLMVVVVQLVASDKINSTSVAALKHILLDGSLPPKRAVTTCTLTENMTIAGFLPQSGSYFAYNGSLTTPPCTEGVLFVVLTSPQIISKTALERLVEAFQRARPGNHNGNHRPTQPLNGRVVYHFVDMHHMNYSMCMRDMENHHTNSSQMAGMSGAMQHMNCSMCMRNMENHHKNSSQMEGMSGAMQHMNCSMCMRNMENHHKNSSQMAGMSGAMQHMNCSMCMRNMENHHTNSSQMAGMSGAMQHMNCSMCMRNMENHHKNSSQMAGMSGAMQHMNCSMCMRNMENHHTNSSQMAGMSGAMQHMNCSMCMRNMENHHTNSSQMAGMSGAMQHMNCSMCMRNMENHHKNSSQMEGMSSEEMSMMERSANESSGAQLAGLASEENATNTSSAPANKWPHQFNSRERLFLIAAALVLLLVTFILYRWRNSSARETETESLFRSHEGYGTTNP
Assay: stopped-flow CO2 hydration assay
Assay type: biochemical
Conditions: read-out: KITcCA
Text: stopped-flow CO2 hydration assay on TcCA (Trypanosoma cruzi carbonic anhydrase)

Row | SMILES | pKi
1 | CC1=CC(=O)NS(=O)(=O)O1 [Acesulphame] | 5.65
2 | O=S(=O)(O)NC1CCCCC1 [Sodium cyclamate] | 6.46
3 | COC(=O)[C@H](Cc1ccccc1)NS(=O)(=O)NCC(C)C [compound 5, 5] | 6.58
4 | COC(=O)CCNS(=O)(=O)NCCc1ccccc1 [compound 7, 7] | 5.14
